{
  "source": "patent US10188659B2",
  "about": "“IGF-1R signaling pathway inhibitors useful in the treatment of neurodegenerative diseases” (YISSUM RESEARCH DEVELOPMENT COMPANY OF THE HEBREW …, priority 2013, dated 2019)",
  "key": {"[1]": {"tested_on": "DAF-16::GFP expressing worms (strain TJ356)", "assay": "DAF-16 localization assay", "assay_type": "in vivo, Caenorhabditis elegans", "details": "300 μM, 6 hours", "procedure": "Synchronized TJ356 worms were grown on the EV control bacteria. At the indicated ages (days 1 of adulthood), 25 worms were transferred onto daf-2 RNAi bacteria for the indicated time (6 h). […] (Molecular Probes), Invitrogen, Carlsbad, Calif., USA]. DAPI and GFP signals were visualized using a fluorescent microscope (Leica DM6000 B; Leica, Wetzlar, Germany). […] The worms were let hatched and develop on control bacteria harboring an empty vector (EV) (FIG. 1A) or on daf-2 RNAi bacteria (FIG. 1B). […] The worms were then fixed and stained with DAPI. […] Paralyzed worms were scored daily. […] The worms were placed on plates seeded with EV bacteria and exposed to 35° C. for 15 hours and survival rates were scored by counting the surviving worms. The results of a representative experiment (three repeats were performed) is presented on FIG. 3."}, "Aβ worms (strain CL2006)": {"tested_on": "Aβ worms (strain CL2006)", "assay": "Paralysis assay in Aβ worms", "assay_type": "in vivo, Caenorhabditis elegans"}, "CF512 worms [2]": {"tested_on": "CF512 worms", "assay": "Heat stress assay", "assay_type": "in vivo, Caenorhabditis elegans", "details": "for stress resistance (survival): 300 μM, 3 hours at day 1, 35° C. for 15 hours"}, "CF512 worms [3]": {"tested_on": "CF512 worms", "assay": "UV stress assay", "assay_type": "in vivo, Caenorhabditis elegans", "details": "sub-lethal UV dose"}, "AKT": {"tested_on": "AKT", "assay": "IGF1-induced AKT phosphorylation, Western blot in A375 cells", "assay_type": "cell-based, human"}, "[4]": {"tested_on": "hsp-16.2 promoter (strain CL2070)", "assay": "hsp-16.2 promoter GFP induction after heat, Western blot", "assay_type": "in vivo, Caenorhabditis elegans", "details": "CL2070 worms, 33° C. three hours"}, "[5]": {"tested_on": "hsp-70 promoter (hsp-70p::GFP)", "assay": "hsp-70 promoter GFP induction after heat, fluorescent microscopy", "assay_type": "in vivo, Caenorhabditis elegans", "details": "600 μM, heat stress 33° C., 3 h"}, "[6]": {"tested_on": "DAF-16, HSF-1 and SKN-1 target genes", "assay": "Real-time quantitative PCR of IIS target genes", "assay_type": "in vivo, Caenorhabditis elegans", "details": "CF512 worms, 600 μM, 3 hours days 1 and 2, vs control"}, "Aβ [7]": {"tested_on": "Aβ", "assay": "Aβ aggregation, Western blot after high-speed centrifugation", "assay_type": "in vivo, Caenorhabditis elegans", "details": "CL2006 worms, WB with 6E10 antibody"}, "Aβ [8]": {"tested_on": "Aβ", "assay": "Aβ immunofluorescence in worms", "assay_type": "in vivo, Caenorhabditis elegans", "details": "immuno-fluorescence"}, "polyQ40-YFP worms": {"tested_on": "polyQ40-YFP worms", "assay": "polyQ40-YFP foci count", "assay_type": "in vivo, Caenorhabditis elegans"}, "polyQ35-YFP worms": {"tested_on": "polyQ35-YFP worms", "assay": "Motility assay (crawling speed)", "assay_type": "in vivo, Caenorhabditis elegans", "details": "600 μM daily day 1 to 11"}, "polyQ40-YFP": {"tested_on": "polyQ40-YFP", "assay": "polyQ40-YFP aggregation (WB, high-speed pellets, native gel)", "assay_type": "in vivo, Caenorhabditis elegans"}, "IRS1 and IRS2": {"tested_on": "IRS1 and IRS2", "assay": "IRS1/IRS2 Ser-phosphorylation and degradation, Western blot in A375 cells"}},
  "note": "“And” between values parts separate entries of the source, which are not always exact repeats. Equal values may be shown once.",
  "data": [
    {"compound": "Oc1cc(CNC(=S)/C=C/c2cc(O)c(O)c(Br)c2)cc(O)c1O", "note": "[Compound 29]", "values": [
      {"measurement": "nuclear localization of DAF-16 (co-localization of DAPI and GFP signals)", "setting": "[1]", "result": "confirmed the nuclear localization of DAF-16"},
      {"measurement": "paralysis rates", "setting": "Aβ worms (strain CL2006); 300 μM, soaked 3 hours days 1 and 2, then daily 25 μl", "result": "increased in reduced rates compared to the untreated control"},
      {"measurement": "stress resistance (survival)", "setting": "CF512 worms [2]", "result": "elevate stress resistance of CF512 worms"}
    ]},
    {"compound": "Oc1cc(CNC(=S)/C=C/c2ccc(O)c(O)c2Br)cc(O)c1O", "note": "[Compound 39]", "values": [
      {"measurement": "rate of paralyzed worms at day 12", "setting": "Aβ worms (strain CL2006); 600 μM compound (or daf-2 RNAi throughout), day 12 of adulthood", "result": 29, "unit": "%"},
      {"measurement": "stress resistance (survival)", "setting": "CF512 worms [2]", "result": "elevate stress resistance of CF512 worms"},
      {"measurement": "raise of survival rates compared to the untreated population", "setting": "CF512 worms [2]; 15 hours at 35° C.", "result": 33, "unit": "%"},
      {"measurement": "survival rate after heat stress", "setting": "CF512 worms [2]; 15 hours at 35° C.", "result": "72% and 71.7%"},
      {"measurement": "mean survival after UV radiation (days±SEM)", "setting": "CF512 worms [3]", "result": "8.76 ± 0.21", "unit": "days"},
      {"measurement": "AKT phosphorylation, kinetic experiment", "setting": "AKT", "result": "partial inhibition of AKT phosphorylation"},
      {"measurement": "IGF1-induced activation of AKT (phosphorylation on threonine 308 and serine 473)", "setting": "AKT; A375 cells, short and long exposures", "result": "abolished the IGF1-induced activation of AKT"},
      {"measurement": "hsp-16.2 promoter driven GFP level", "setting": "[4]; 150 μM", "result": "no detectable effect"},
      {"measurement": "hsp-16.2 promoter driven GFP level", "setting": "[4]; 300 μM", "result": "moderate effect"},
      {"measurement": "hsp-16.2 promoter driven GFP level", "setting": "[4]; 600 μM", "result": "remarkably increased the induction of GFP"},
      {"measurement": "hsp-16.2 promoter driven GFP level", "setting": "[4]; 900 μM", "result": "lower effect than that of 600 μM"},
      {"measurement": "hsp-70 promoter driven GFP fluorescence", "setting": "[5]", "result": "elevated GFP fluorescence levels"},
      {"measurement": "average increase of expression of DAF-16 and SKN-1 target genes", "setting": "[6]", "result": "19-37%"},
      {"measurement": "elevation of expression level of hsp-70", "setting": "[6]", "result": "approximately 170%"},
      {"measurement": "high molecular-weight Aβ aggregates", "setting": "Aβ [7]", "result": "elevated amount of high molecular-weight Aβ aggregates"},
      {"measurement": "Aβ amounts and distribution", "setting": "Aβ [8]", "result": "enhanced the amount of Aβ and led to its accumulation in the central part of the animal's body"},
      {"measurement": "average number of polyQ40-YFP foci/worm", "setting": "polyQ40-YFP worms", "result": 52.78, "unit": "foci/worm"},
      {"measurement": "average crawling speed at day 11 relative to day 1 of adulthood", "setting": "polyQ35-YFP worms", "result": 32.9, "unit": "%"},
      {"measurement": "polyQ40-YFP aggregation, YFP fluorescence on native gel", "setting": "polyQ40-YFP; 1% native gel", "result": "did not exhibit elevated rates of polyQ40-YFP aggregation"},
      {"measurement": "aggregated polyQ40-YFP in high-speed pellets", "setting": "polyQ40-YFP; WB after high-speed centrifugation", "result": "no increase was seen"},
      {"measurement": "SDS resistant polyQ40-YFP aggregates, whole worm homogenates", "setting": "polyQ40-YFP; WB, GFP antibody, day 2", "result": "no such material could be detected"},
      {"measurement": "IRS1 and IRS2 protein levels", "setting": "IRS1 and IRS2; long exposure (19 hours)", "result": "elimination of IRS1 and IRS2"},
      {"measurement": "phosphorylation of IRS1 and IRS2 on serine residues", "setting": "IRS1 and IRS2; short exposure (4 hours)", "result": "massive phosphorylation on serine residues"}
    ]}
  ]
}
